# Measurements: patent US9132140B2, “Boronic acid derivatives and therapeutic uses thereof” (Rempex Pharmaceuticals, Inc., priority 2013, dated 2015)
# Tests used:
# KPM1123 (KPC-2 TEM SHV) = assay type: cell-based, Klebsiella pneumoniae
# Text: (§1) Several strains simultaneously expressing both class A and class B carbapenemases, which were constructed using conjugation, were also included in the panel.
# KPM1099 (NDM, KPC) = assay type: cell-based, Klebsiella pneumoniae
# Text: as §1
# KP1064 (KPC TEM SHV) = assay type: cell-based, Klebsiella pneumoniae
# Text: as §1
# KPM1122 (NDM, VIM) = assay type: cell-based, Klebsiella pneumoniae
# Text: as §1
# KP1061 (KPC TEM SHV) = assay type: cell-based, Klebsiella pneumoniae
# Text: as §1
# KP1097 (IMP-1 SHV) = assay type: cell-based, Klebsiella pneumoniae
# Text: as §1
# KP1054 (VIM-1, SHV-11) = assay type: cell-based, Klebsiella pneumoniae
# Text: as §1
# KP1004 (KPC TEM SHV) = assay type: cell-based, Klebsiella pneumoniae
# Text: as §1
# KP1070 (KPC TEM SHV) = assay type: cell-based, Klebsiella pneumoniae
# Text: as §1
# KPM1344 (VIM-1) = assay type: cell-based, Klebsiella pneumoniae
# Text: as §1
# KP1059 (VIM-1, SHV-11) = assay type: cell-based, Klebsiella pneumoniae
# Text: as §1
# KPM1345 (VIM-1 SHV) = assay type: cell-based, Klebsiella pneumoniae
# Text: as §1
# OXA-48 = OXA-48 (Klebsiella pneumoniae, UniProt Q6XEC0); experiment: Inhibition of purified beta-lactamase, nitrocefin cleavage; assay type: biochemical; conditions: read-out: Ki (OXA-48, NCF)
# OXA-48, sequence (Q6XEC0 23-265, looked up): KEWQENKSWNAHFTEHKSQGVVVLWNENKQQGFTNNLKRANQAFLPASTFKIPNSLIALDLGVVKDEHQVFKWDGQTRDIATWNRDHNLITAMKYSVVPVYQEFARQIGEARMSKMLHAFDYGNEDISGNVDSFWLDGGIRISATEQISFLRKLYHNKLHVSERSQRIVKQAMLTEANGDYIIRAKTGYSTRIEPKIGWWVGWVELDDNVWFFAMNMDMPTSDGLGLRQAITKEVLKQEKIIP
# Procedure, shortened: (§2)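 Purified enzyme was preincubated with a range of inhibitor concentrations in reaction buffer for 10 min at room temperature. Nitrocefin was then added and its cleavage followed at 490 nm every 10 sec for 10 min.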
# CTX-M-14 = CTX-M-14 (Escherichia coli, UniProt Q9L5C7); experiment: as above; assay type: biochemical
# CTX-M-14, sequence (Q9L5C7 entry or part of it): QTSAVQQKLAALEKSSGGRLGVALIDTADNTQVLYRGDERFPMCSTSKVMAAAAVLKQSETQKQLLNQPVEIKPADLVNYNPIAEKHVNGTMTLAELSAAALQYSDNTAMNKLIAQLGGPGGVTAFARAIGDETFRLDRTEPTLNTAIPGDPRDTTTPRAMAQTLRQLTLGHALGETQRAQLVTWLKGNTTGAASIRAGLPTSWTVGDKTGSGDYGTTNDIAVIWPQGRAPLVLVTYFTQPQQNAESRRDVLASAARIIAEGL
# Procedure, shortened: as §2
# SHV-12 = SHV-12 (Klebsiella pneumoniae, UniProt P0AD64, E235K/G234S/L31Q); experiment: as above; assay type: biochemical; conditions: read-out: Ki (SHV-12, NCF)
# SHV-12, sequence (P0AD64 22-286 L31Q/G234S/E235K): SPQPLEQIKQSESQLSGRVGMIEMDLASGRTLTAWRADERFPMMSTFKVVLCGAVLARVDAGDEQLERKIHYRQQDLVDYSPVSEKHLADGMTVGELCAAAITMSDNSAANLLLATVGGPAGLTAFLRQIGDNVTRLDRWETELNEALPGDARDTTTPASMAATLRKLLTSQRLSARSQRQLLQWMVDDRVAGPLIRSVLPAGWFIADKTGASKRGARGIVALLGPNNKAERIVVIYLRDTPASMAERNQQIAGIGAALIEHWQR
# Procedure, shortened: as §2
# P99/AmpC of ECL = P99/AmpC of ECL (Enterobacter cloacae, UniProt P05364); experiment: biochemical; conditions: nitrocefin; read-out: Ki (P99/AmpC of ECL, NCF)
# P99/AmpC of ECL, sequence (P05364 21-381): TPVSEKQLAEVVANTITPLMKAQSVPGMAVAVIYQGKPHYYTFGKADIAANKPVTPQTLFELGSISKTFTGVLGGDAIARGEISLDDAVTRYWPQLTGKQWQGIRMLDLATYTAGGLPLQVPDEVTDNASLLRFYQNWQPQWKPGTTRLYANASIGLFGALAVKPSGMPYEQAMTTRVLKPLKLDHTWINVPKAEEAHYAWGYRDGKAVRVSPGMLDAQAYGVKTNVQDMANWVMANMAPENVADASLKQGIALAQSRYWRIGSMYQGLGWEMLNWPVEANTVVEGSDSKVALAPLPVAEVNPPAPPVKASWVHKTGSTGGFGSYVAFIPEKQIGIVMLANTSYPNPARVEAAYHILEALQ
# Experimental: Purified enzymes were mixed with various concentrations of inhibitors in reaction buffer and incubated for 10 min at room temperature. Nitrocefin was added and substrate cleavage profiles were recorded at 490 nm every 10 sec for 10 min.
smiles,measurement,setting,value
"Nn1cnnc1S[C@H]1Cc2cccc(C(=O)O)c2OB1O [Compound 14, (R)-3-(4-amino-4H-1,2,4-triazol-3-ylthio)-2-hydroxy-3,4-dihydro-2H-benzo[e][1,2]oxaborinine-8-carboxylic acid]",Imipenem + 14 MIC,KPM1123 (KPC-2 TEM SHV),X (key: X: MIC of less than 1 μg/mL; Y: MIC of 1 μg/mL to 10 μg/mL; Z: MIC of greater than 10 μg/mL)
same,Meropenem + 14 MIC,KPM1123 (KPC-2 TEM SHV),X (key: X: MIC of less than 1 μg/mL; Y: MIC of 1 μg/mL to 10 μg/mL; Z: MIC of greater than 10 μg/mL)
same,Imipenem + 14 MIC,"KPM1099 (NDM, KPC)",Y (key: X: MIC of less than 1 μg/mL; Y: MIC of 1 μg/mL to 10 μg/mL; Z: MIC of greater than 10 μg/mL)
same,Meropenem + 14 MIC,"KPM1099 (NDM, KPC)",Y (key: X: MIC of less than 1 μg/mL; Y: MIC of 1 μg/mL to 10 μg/mL; Z: MIC of greater than 10 μg/mL)
same,Imipenem + 14 MIC,KP1064 (KPC TEM SHV),X (key: X: MIC of less than 1 μg/mL; Y: MIC of 1 μg/mL to 10 μg/mL; Z: MIC of greater than 10 μg/mL)
same,Meropenem + 14 MIC,KP1064 (KPC TEM SHV),Y (key: X: MIC of less than 1 μg/mL; Y: MIC of 1 μg/mL to 10 μg/mL; Z: MIC of greater than 10 μg/mL)
same,Imipenem + 14 MIC,"KPM1122 (NDM, VIM)",Y (key: X: MIC of less than 1 μg/mL; Y: MIC of 1 μg/mL to 10 μg/mL; Z: MIC of greater than 10 μg/mL)
same,Meropenem + 14 MIC,"KPM1122 (NDM, VIM)",Y (key: X: MIC of less than 1 μg/mL; Y: MIC of 1 μg/mL to 10 μg/mL; Z: MIC of greater than 10 μg/mL)
same,Imipenem + 14 MIC,KP1061 (KPC TEM SHV),X (key: X: MIC of less than 1 μg/mL; Y: MIC of 1 μg/mL to 10 μg/mL; Z: MIC of greater than 10 μg/mL)
same,Meropenem + 14 MIC,KP1061 (KPC TEM SHV),X (key: X: MIC of less than 1 μg/mL; Y: MIC of 1 μg/mL to 10 μg/mL; Z: MIC of greater than 10 μg/mL)
same,Imipenem + 14 MIC,KP1097 (IMP-1 SHV),X (key: X: MIC of less than 1 μg/mL; Y: MIC of 1 μg/mL to 10 μg/mL; Z: MIC of greater than 10 μg/mL)
same,Meropenem + 14 MIC,KP1097 (IMP-1 SHV),Y (key: X: MIC of less than 1 μg/mL; Y: MIC of 1 μg/mL to 10 μg/mL; Z: MIC of greater than 10 μg/mL)
same,Imipenem + 14 MIC,"KP1054 (VIM-1, SHV-11)",X (key: X: MIC of less than 1 μg/mL; Y: MIC of 1 μg/mL to 10 μg/mL; Z: MIC of greater than 10 μg/mL)
same,Meropenem + 14 MIC,"KP1054 (VIM-1, SHV-11)",X (key: X: MIC of less than 1 μg/mL; Y: MIC of 1 μg/mL to 10 μg/mL; Z: MIC of greater than 10 μg/mL)
same,Imipenem + 14 MIC,KP1004 (KPC TEM SHV),X (key: X: MIC of less than 1 μg/mL; Y: MIC of 1 μg/mL to 10 μg/mL; Z: MIC of greater than 10 μg/mL)
same,Meropenem + 14 MIC,KP1004 (KPC TEM SHV),X (key: X: MIC of less than 1 μg/mL; Y: MIC of 1 μg/mL to 10 μg/mL; Z: MIC of greater than 10 μg/mL)
same,Imipenem + 14 MIC,KP1070 (KPC TEM SHV),X (key: X: MIC of less than 1 μg/mL; Y: MIC of 1 μg/mL to 10 μg/mL; Z: MIC of greater than 10 μg/mL)
same,Meropenem + 14 MIC,KP1070 (KPC TEM SHV),X (key: X: MIC of less than 1 μg/mL; Y: MIC of 1 μg/mL to 10 μg/mL; Z: MIC of greater than 10 μg/mL)
same,Imipenem + 14 MIC,KPM1344 (VIM-1),X (key: X: MIC of less than 1 μg/mL; Y: MIC of 1 μg/mL to 10 μg/mL; Z: MIC of greater than 10 μg/mL)
same,Meropenem + 14 MIC,KPM1344 (VIM-1),Y (key: X: MIC of less than 1 μg/mL; Y: MIC of 1 μg/mL to 10 μg/mL; Z: MIC of greater than 10 μg/mL)
same,Imipenem + 14 MIC,"KP1059 (VIM-1, SHV-11)",Y (key: X: MIC of less than 1 μg/mL; Y: MIC of 1 μg/mL to 10 μg/mL; Z: MIC of greater than 10 μg/mL)
same,Meropenem + 14 MIC,"KP1059 (VIM-1, SHV-11)",Y (key: X: MIC of less than 1 μg/mL; Y: MIC of 1 μg/mL to 10 μg/mL; Z: MIC of greater than 10 μg/mL)
same,Imipenem + 14 MIC,KPM1345 (VIM-1 SHV),X (key: X: MIC of less than 1 μg/mL; Y: MIC of 1 μg/mL to 10 μg/mL; Z: MIC of greater than 10 μg/mL)
same,Meropenem + 14 MIC,KPM1345 (VIM-1 SHV),X (key: X: MIC of less than 1 μg/mL; Y: MIC of 1 μg/mL to 10 μg/mL; Z: MIC of greater than 10 μg/mL)
same,Ki,OXA-48,< 100 nM
same,Ki,CTX-M-14,< 100 nM
same,Ki,SHV-12,< 100 nM
same,Ki,P99/AmpC of ECL,< 100 nM
